The subject of the assay is Wnt signaling. The assay is described as follows: TopFlash reporter gene bioassay in SW480 cells. The following applies: Homo sapiens, read-out: RGA, IC50 (μM) TopF. Type of assay: cell-based.
Where [1] appears, read: SW480, TopFlash reporter gene assay, inhibition of Wnt signaling.

Read-outs that look alike come from different tables or passages of the source.

These results are taken from patent publication US8080657B2, “Compounds of reverse turn mimetics and the use thereof” (Choongwae Pharma Corporation, priority 2008, dated 2011).

One may read the IC50 as the concentration needed to halve the response being measured.

With `C=CCN1CC(=O)N2[C@@H](Cc3ccc(O)cc3)C(=O)N(Cc3csc4ccc(N)cc34)C[C@@H]2N1C(=O)NCc1ccccc1` [compound 100], under setting [1], the IC50 was 1.21 ± 0.14 µM. Turning to `C=CCN1CC(=O)N2[C@@H](Cc3ccc(O)cc3)C(=O)N(Cc3cccc(C(=O)N4CCCC4)c3)C[C@@H]2N1C(=O)NCc1ccccc1` [compound 189], the IC50 (SW480) was determined as 2.68 ± 0.48 µM. As for `C=CCN1CC(=O)N2[C@@H](Cc3ccc(ON)cc3)C(=O)N(Cc3ccc(OC)c(Cl)c3)C[C@@H]2N1C(=O)NCc1ccccc1` [compound 147], the IC50 under setting [1] came out at 1.99 ± 0.32 µM. Turning to `C=CCN1CC(=O)N2[C@@H](Cc3ccc(O)cc3)C(=O)N(Cc3ccc(OC)c(Cl)c3)C[C@@H]2N1C(=O)NCc1ccccc1` [compound 117], the IC50 under setting [1] is 1.44 ± 0.22 µM. Turning to `C=CCN1CC(=O)N2[C@@H](Cc3ccc(O)cc3)C(=O)N(Cc3ccc(F)c4scnc34)C[C@@H]2N1C(=O)NCc1ccc(Cl)c(Cl)c1` [compound 41], the IC50 under setting [1] is 0.63 ± 0.09 µM. For `C#Cc1ccc(CNC(=O)N2[C@H]3CN(Cc4ccc(F)c5scnc45)C(=O)[C@H](Cc4ccc(O)cc4)N3C(=O)CN2CC=C)cc1` [compound 44], the IC50 under setting [1] stood at 0.67 ± 0.05 µM. On to `C=CCN1CC(=O)N2C(Cc3ccc(O)cc3)C(=O)N(Cc3ccccc3N3CCNCC3)CC2N1C(=O)NCc1ccccc1` (stereo not shown) [compound 221], for which the IC50 under setting [1] was determined as 36.1 ± 2.69 µM.

As for `C=CCN1CC(=O)N2[C@@H](Cc3ccc(O)cc3)C(=O)N(Cc3cccc(OC)c3OCCN3CCCCC3)C[C@@H]2N1C(=O)NCc1ccccc1` [compound 173], the IC50 under setting [1] came to 2.26 ± 0.16 µM.

Take `C=CCN1CC(=O)N2[C@@H](Cc3ccc(O)cc3)C(=O)N(Cc3cccc(-c4ccncc4)c3)C[C@@H]2N1C(=O)NCc1ccccc1` [compound 34]: the IC50 under setting [1] came out at 0.58 ± 0.132 µM. The same measure, in the same setting: under `C=CCN1CC(=O)N2[C@@H](Cc3ccc(O)cc3)C(=O)N(Cc3cccc(C(=O)NCCO)c3)C[C@@H]2N1C(=O)NCc1ccccc1` [compound 256] stands 7.2 ± 1.06 µM. As for `C=CCN1CC(=O)N2C(Cc3ccc(OP(=O)(O)O)cc3)C(=O)N(Cc3cccc4sc(N)nc34)C[C@@H]2N1C(=O)NCc1ccccc1` (stereo partly shown) [compound 14], the half-maximal inhibitory concentration (IC50) (SW480) stood at 0.37 ± 0.07 µM. Take `C=CCN1CC(=O)N2[C@@H](Cc3ccc(O)cc3)C(=O)N(Cc3cccc4c(C#N)cn(S(=O)(=O)c5ccccc5)c34)C[C@@H]2N1C(=O)NCc1ccccc1` [compound 11]: under setting [1], the half-maximal inhibitory concentration (IC50) is 0.31 ± 0.09 µM.

Turning to `C=CCN1CC(=O)N2[C@@H](Cc3ccc(OP(=O)(O)O)cc3)C(=O)N(Cc3cccc4c3oc3ccccc34)C[C@@H]2N1C(=O)NCc1ccccc1` [compound 13], under “SW480”, the IC50 was found to be 0.36 ± 0.13 µM. Consider `C=CCN1CC(=O)N2[C@@H](Cc3ccc(O)cc3)C(=O)N(Cc3cccc(-c4ncc[nH]4)c3)C[C@@H]2N1C(=O)NCc1ccccc1` [compound 209], for which, under setting [1], the IC50 was determined as 3.3 ± 0.58 µM. With `C=CCN1CC(=O)N2[C@@H](Cc3ccc(OP(=O)(O)O)cc3)C(=O)N(Cc3cccc(OCCN4CCOCC4)c3)C[C@@H]2N1C(=O)NCc1ccccc1` [compound 172], the IC50 (SW480) was found to be 2.21 ± 0.35 µM. `C=CCN1CC(=O)N2[C@@H](Cc3ccc(O)cc3)C(=O)N(Cc3cccc(-c4ccc(F)cc4)n3)C[C@@H]2N1C(=O)NCc1ccccc1` [compound 141]: under setting [1], the IC50 was found to be 1.91 ± 0.28 µM.

Turning to `C=CCN1CC(=O)N2[C@@H](Cc3ccc(OP(=O)(O)O)cc3)C(=O)N(Cc3csc4ccccc34)C[C@@H]2N1C(=O)NCc1ccccc1` [compound 35], the IC50 (SW480) was found to be 0.59 ± 0.066 µM.

Take `C=CCN1CC(=O)N2[C@@H](Cc3ccc(O)cc3)C(=O)N(Cc3cccc4c(-c5ccccc5)cn(S(=O)(=O)c5ccccc5)c34)C[C@@H]2N1C(=O)NCc1ccccc1` [compound 27]: the IC50 under setting [1] came out at 0.52 ± 0.09 µM.

For the molecule `CN1CC(=O)N2[C@@H](Cc3ccc(O)cc3)C(=O)N(Cc3cccc4scnc34)C[C@@H]2N1C(=O)NCc1ccccc1` [compound 232], the half-maximal inhibitory concentration (IC50) under setting [1] was 4.97 ± 0.73 µM. As to `C=CCN1CC(=O)N2[C@@H](Cc3ccc(O)cc3)C(=O)N(Cc3ccc4ccn(S(=O)(=O)c5ccc(C)cc5)c4c3)C[C@@H]2N1C(=O)NCc1ccccc1` [compound 174], the IC50 under setting [1] is 2.33 ± 0.64 µM. Take `C=CCN1CC(=O)N2[C@@H](Cc3ccc(O)c(Cl)c3)C(=O)N(Cc3cccc4scnc34)C[C@@H]2N1C(=O)NCc1ccccc1` [compound 234]: the concentration for half-maximal inhibition (IC50) under setting [1] came out at 40.2 ± 5.7 µM. The same measure, in the same setting: the value for `C=CCN1CC(=O)N2[C@@H](Cc3ccc(O)cc3)C(=O)N(Cc3ccc(F)c(OCCN4CCOCC4)c3)C[C@@H]2N1C(=O)NCc1ccccc1` [compound 70] was 0.9 ± 0.2 µM; that for `C=CCN1CC(=O)N2[C@@H](Cc3ccc(O)cc3)C(=O)N(Cc3cccc4c(=O)ccoc34)C[C@@H]2N1C(=O)NCc1ccccc1` [compound 87] was 1.01 ± 0.24 µM; that for `C=CCN1CC(=O)N2[C@@H](Cc3ccc(O)cc3)C(=O)N(Cc3csc4ccc(NC(C)=O)cc34)C[C@@H]2N1C(=O)NCc1ccccc1` [compound 85] was 1 ± 0.22 µM. Take `C=CCN1CC(=O)N2[C@@H](Cc3ccc(O)cc3)C(=O)N(Cc3cccc(C(=O)NO)c3)C[C@@H]2N1C(=O)NCc1ccccc1` [compound 265]: the IC50 under setting [1] was 9.3 ± 0.53 µM. On to `C=CCN1CC(=O)N2[C@@H](Cc3ccc(O)cc3)C(=O)N(Cc3cccc(C(=O)NCC4CC4)c3)C[C@@H]2N1C(=O)NCc1ccccc1` [compound 25], for which the IC50 under setting [1] turned out to be 0.52 ± 0.04 µM. With `C=CCN1CC(=O)N2[C@@H](Cc3ccc(O)cc3)C(=O)N(Cc3cccc4c(C(C)=O)cn(S(=O)(=O)c5ccc(C)cc5)c34)C[C@@H]2N1C(=O)NCc1ccccc1` [compound 2], the IC50 under setting [1] amounted to 0.084 ± 0.016 µM. The same measure, in the same setting: under `C=CCN1CC(=O)N2[C@@H](Cc3ccc(O)cc3)C(=O)N(Cc3cccc(C(=O)Nc4cc[nH]n4)c3)C[C@@H]2N1C(=O)NCc1ccccc1` [compound 260] stands 8.43 ± 2.07 µM; under `C=CCN1CC(=O)N2[C@@H](Cc3ccc(NC(N)=O)cc3)C(=O)N(Cc3cccc4scnc34)C[C@@H]2N1C(=O)NCc1ccccc1` [compound 162], 15.1 ± 3.34 µM. Take `C=CCN1CC(=O)N2[C@@H](Cc3ccc(O)cc3)C(=O)N(Cc3csc4cc([N+](=O)[O-])ccc34)C[C@@H]2N1C(=O)NCc1ccccc1` [compound 75]: under setting [1], the IC50 came out at 0.92 ± 0.14 µM.

Take `C=CCN1CC(=O)N2[C@@H](Cc3ccc(O)cc3)C(=O)N(Cc3ccc(F)c(C#N)c3)C[C@@H]2N1C(=O)NCc1ccccc1` [compound 69]: the IC50 under setting [1] worked out at 0.87 ± 0.32 µM. Regarding `C=CCN1CC(=O)N2[C@@H](Cc3ccc(O)cc3)C(=O)N(Cc3csc4ccc(NC=O)cc34)C[C@@H]2N1C(=O)NCc1ccccc1` [compound 185], the IC50 (SW480) worked out at 2.61 ± 0.19 µM. For the molecule `C=CCN1CC(=O)N2[C@@H](Cc3ccc(O)cc3)C(=O)N(Cc3ccc(N)c([N+](=O)[O-])c3)C[C@@H]2N1C(=O)NCc1ccccc1` [compound 254], the IC50 under setting [1] worked out at 7.13 ± 1.35 µM. On to `C=CCN1CC(=O)N2[C@@H](Cc3ccc(O)cc3)C(=O)N(Cc3cccc(-c4cccc(NC(C)=O)c4)c3)C[C@@H]2N1C(=O)NCc1ccccc1` [compound 18], for which, under setting [1], the IC50 stood at 0.42 ± 0.12 µM.

As to `C=CCN1CC(=O)N2[C@@H](Cc3ccc(O)cc3)C(=O)N(Cc3cccc4[nH]cnc34)C[C@@H]2N1C(=O)NCc1ccccc1` [compound 49], the IC50 under setting [1] was found to be 0.71 ± 0.43 µM. `C=CCN1CC(=O)N2[C@@H](Cc3ccc(O)cc3)C(=O)N(Cc3ccc(C(C)(C)C)cc3)C[C@@H]2N1C(=O)NCc1ccccc1` [compound 236]: the IC50 under setting [1] turned out to be 41.7 ± 4.2 µM. For `C=CCN1CC(=O)N2[C@@H](Cc3ccc(OC(N)=O)cc3)C(=O)N(Cc3ccc(F)cc3F)C[C@@H]2N1C(=O)NCc1ccccc1` [compound 251], the IC50 (SW480) turned out to be 1.14 ± 0.07 µM. With `C=CCN1CC(=O)N2[C@@H](Cc3ccc(O)cc3)C(=O)N(Cc3ccccc3OC(F)F)C[C@@H]2N1C(=O)NCc1ccccc1` [compound 58], the IC50 under setting [1] worked out at 0.78 ± 0.13 µM. As for `C=CCN1CC(=O)N2[C@@H](Cc3ccc(OP(=O)(O)O)cc3)C(=O)N(Cc3cccc4ccnn34)C[C@@H]2N1C(=O)NCc1ccccc1` [compound 92], the IC50 (SW480) came to 1.04 ± 0.18 µM. On to `C=CCN1CC(=O)N2[C@@H](Cc3ccc(O)cc3)C(=O)N(Cc3cccc(C(=O)NCC4CCCCC4)c3)C[C@@H]2N1C(=O)NCc1ccccc1` [compound 101], for which the IC50 under setting [1] is 1.24 ± 0.07 µM. Still for that read-out and setting: under `C=CCN1CC(=O)N2[C@@H](Cc3ccc(O)cc3)C(=O)N(Cc3csc4cc(NC(N)=O)ccc34)C[C@@H]2N1C(=O)NCc1ccccc1` [compound 201] stands 26.1 ± 7.1 µM. As to `C=CCN1CC(=O)N2[C@@H](Cc3ccc(O)cc3)C(=O)N(Cc3cccc(Oc4ccccc4)c3)C[C@@H]2N1C(=O)NCc1ccccc1` [compound 146], the IC50 under setting [1] turned out to be 1.99 ± 0.12 µM. `C=CCN1CC(=O)N2[C@@H](Cc3ccc(O)cc3)C(=O)N(Cc3ccccc3Sc3ccc(Cl)cc3)C[C@@H]2N1C(=O)NCc1ccccc1` [compound 219]: the IC50 under setting [1] came out at 3.97 ± 0.57 µM. Same read-out and setting: under `C=CCN1CC(=O)N2C(CN(Cc3cccc(-c4ccc(SC)cc4)n3)C(=O)[C@@H]2Cc2ccc(O)cc2)N1C(=O)NCc1ccccc1` (stereo partly shown) [compound 179] stands 2.42 ± 0.32 µM; under `C=CCN1CC(=O)N2[C@@H](Cc3ccc(O)cc3)C(=O)N(Cc3cccc4c(C(=O)C5CC5)cn(S(=O)(=O)c5ccc(C)cc5)c34)C[C@@H]2N1C(=O)NCc1ccccc1` [compound 1], 0.081 ± 0.0086 µM; under `C=CCN1CC(=O)N2[C@@H](Cc3ccc(O)cc3)C(=O)N(Cc3cccc(NS(N)(=O)=O)c3)C[C@@H]2N1C(=O)NCc1ccccc1` [compound 243], 5.81 ± 0.58 µM.

Turning to `C=CCN1CC(=O)N2[C@@H](Cc3ccc(O)cc3)C(=O)N(Cc3csc4ccc(F)cc34)C[C@@H]2N1C(=O)NCc1ccccc1` [compound 21], the IC50 under setting [1] is 0.45 ± 0.05 µM.

For the molecule `C=CCN1CC(=O)N2[C@@H](Cc3ccc(O)cc3)C(=O)N(Cc3cccc4cc[nH]c34)C[C@@H]2N1C(=O)NCc1ccccn1` [compound 205], the IC50 (SW480) worked out at 3.14 ± 0.68 µM. `C=CCN1CC(=O)N2[C@@H](Cc3ccc(O)cc3)C(=O)N(Cc3cccc(Br)n3)C[C@@H]2N1C(=O)NCc1ccccc1` [compound 177]: under setting [1], the IC50 is 2.37 ± 0.35 µM. Regarding `C=CCN1CC(=O)N2[C@@H](CC3=CC(=O)NC3=O)C(=O)N(Cc3cccc4scnc34)C[C@@H]2N1C(=O)NCc1ccccc1` [compound 192], the IC50 under setting [1] was 2.85 ± 0.79 µM. On the same count and under the same terms, the value for `C=CCN1CC(=O)N2[C@@H](Cc3ccc(OS(=O)(=O)NC(=O)OCCN(C)C)cc3)C(=O)N(Cc3cccc4c(C(=O)C5CC5)c[nH]c34)C[C@@H]2N1C(=O)NCc1ccccc1` [compound 220] was 33.1 ± 4.07 µM; that for `C=CCN1CC(=O)N2[C@@H](Cc3ccc(O)cc3)C(=O)N(CC3=CS(=O)(=O)c4ccccc43)C[C@@H]2N1C(=O)NCc1ccccc1` [compound 263] was 9.09 ± 0.67 µM.
